Measurements as given in ChEMBL document CHEMBL3046147, “Synthesis and Herbicidal Activity of 1-Arylalkyl-3-pyrrolin-2-one Derivatives” (J Pestic Sci, 2000).
Calls of active or inactive are those of the source. The rule behind the calls is not given here.

Experiments:
Elatine triandra [1] = experiment: Herbicidal activity against Elatine triandra at 1000 g /ha treated at 1 to 2-pairs of leaf stage measured after 26 days by outdoor concrete pot test; type: functional, organism-based
Rotala indica [2] = experiment: Herbicidal activity against Rotala indica at 1000 g /ha treated at 1 to 2-pairs of leaf stage measured after 26 days by outdoor concrete pot test; type: functional, organism-based
Rotala indica [3] = experiment: Herbicidal activity against Rotala indica at 250 g /ha treated at 1 to 2-pairs of leaf stage measured after 26 days by outdoor concrete pot test; type: functional, organism-based
Echinochloa oryzicola [4] = experiment: Herbicidal activity against Echinochloa oryzicola grown in water-drained pot under greenhouse condition assessed as time duration of residual effect at 500 g /ha; type: functional
Lindernia procumbens = experiment: Herbicidal activity against Lindernia procumbens at 500 g /ha treated at 1 to 2-pairs of leaf stage measured after 26 days by outdoor concrete pot test; type: functional, organism-based
[5] = system: Schoenoplectiella juncoides; experiment: Herbicidal activity against Schoenoplectiella juncoides at 500 g /ha treated at 1.5 to 2.1-leaf stage measured after 26 days by outdoor concrete pot test; type: functional, organism-based
Echinochloa oryzicola [6] = experiment: Herbicidal activity against Echinochloa oryzicola under greenhouse condition assessed as growth inhibition at 1000 g /ha measured after 33 days; type: functional, organism-based
Echinochloa oryzicola [7] = experiment: Herbicidal activity against Echinochloa oryzicola under greenhouse condition assessed as growth inhibition at 1000 g /ha measured after 27 days; type: functional, organism-based
Echinochloa oryzicola [8] = experiment: Herbicidal activity against Echinochloa oryzicola under greenhouse condition assessed as growth inhibition at 1000 g /ha measured after 20 days; type: functional, organism-based
Echinochloa oryzicola [9] = experiment: Herbicidal activity against Echinochloa oryzicola under greenhouse condition assessed as growth inhibition at 250 g /ha measured after 13 days; type: functional, organism-based
Echinochloa oryzicola [10] = experiment: Herbicidal activity against Echinochloa oryzicola under greenhouse condition assessed as growth inhibition at 500 g /ha measured after 33 days; type: functional, organism-based
Echinochloa oryzicola [11] = experiment: Herbicidal activity against Echinochloa oryzicola under greenhouse condition assessed as growth inhibition at 125 g /ha measured after 33 days; type: functional, organism-based
Echinochloa oryzicola [12] = experiment: Herbicidal activity against Echinochloa oryzicola under greenhouse condition assessed as growth inhibition at 125 g /ha measured after 20 days; type: functional, organism-based
Echinochloa oryzicola [13] = experiment: Herbicidal activity against Echinochloa oryzicola under greenhouse condition assessed as growth inhibition at 125 g /ha measured after 13 days; type: functional, organism-based
Sagittaria pygmaea = experiment: Herbicidal activity against Sagittaria pygmaea at 500 g /ha treated at 0.5 to 1-leaf stage measured after 26 days by outdoor concrete pot test; type: functional, organism-based
Elatine triandra [14] = experiment: Herbicidal activity against Elatine triandra at 500 g /ha treated at 1 to 2-pairs of leaf stage measured after 26 days by outdoor concrete pot test; type: functional, organism-based
Echinochloa oryzicola [15] = experiment: Herbicidal activity against Echinochloa oryzicola grown in water-drained pot under greenhouse condition assessed as growth inhibition at 500 g /ha measured after 42 days; type: functional, organism-based
Echinochloa oryzicola [16] = experiment: Herbicidal activity against Echinochloa oryzicola grown in water-drained pot under greenhouse condition assessed as growth inhibition at 500 g /ha measured after 20 days; type: functional, organism-based
Echinochloa oryzicola [17] = experiment: Herbicidal activity against Echinochloa oryzicola grown in water-drained pot under greenhouse condition assessed as growth inhibition at 500 g /ha measured after 6 days; type: functional, organism-based
Echinochloa oryzicola [18] = experiment: Herbicidal activity against Echinochloa oryzicola grown in water-drained pot under greenhouse condition assessed as growth inhibition at 125 g /ha measured after 42 days; type: functional, organism-based
Echinochloa oryzicola [19] = experiment: Herbicidal activity against Echinochloa oryzicola grown in water-drained pot under greenhouse condition assessed as growth inhibition at 125 g /ha measured after 33 days; type: functional, organism-based
Echinochloa oryzicola [20] = experiment: Herbicidal activity against Echinochloa oryzicola grown in water-drained pot under greenhouse condition assessed as growth inhibition at 125 g /ha measured after 27 days; type: functional, organism-based
Echinochloa oryzicola [21] = experiment: Herbicidal activity against Echinochloa oryzicola grown in water-drained pot under greenhouse condition assessed as growth inhibition at 125 g /ha measured after 13 days; type: functional, organism-based
Echinochloa oryzicola [22] = experiment: Herbicide activity against Echinochloa oryzicola under greenhouse condition compound treated at 2 leaf-stage measured after 14 to 20 days; type: functional

SMILES: CC1=C(c2ccccc2)C(=O)N(C(C)(C)c2nc3ccccc3s2)C1
- growth inhibition (GI) (Elatine triandra [1]): Active
- growth inhibition (GI) (Rotala indica [2]): Active
- growth inhibition (GI) (Rotala indica [3]): Active
- Time (Echinochloa oryzicola [4]): >42 days
- growth inhibition (GI) (Lindernia procumbens): Active
- growth inhibition (GI) [5]: inactive
- growth inhibition (GI) (Echinochloa oryzicola [6]): Active
- growth inhibition (GI) (Echinochloa oryzicola [7]): Active
- growth inhibition (GI) (Echinochloa oryzicola [8]): Active
- growth inhibition (GI) (Echinochloa oryzicola [9]): Active
- growth inhibition (GI) (Echinochloa oryzicola [10]): Active
- growth inhibition (GI) (Echinochloa oryzicola [11]): Active
- growth inhibition (GI) (Echinochloa oryzicola [12]): Active
- growth inhibition (GI) (Echinochloa oryzicola [13]): Active
- growth inhibition (GI) (Sagittaria pygmaea): Active
- growth inhibition (GI) (Elatine triandra [14]): Active
- growth inhibition (GI) (Echinochloa oryzicola [15]): inactive
- growth inhibition (GI) (Echinochloa oryzicola [16]): Active
- growth inhibition (GI) (Echinochloa oryzicola [17]): Active
- growth inhibition (GI) (Echinochloa oryzicola [18]): inactive
- growth inhibition (GI) (Echinochloa oryzicola [19]): inactive
- growth inhibition (GI) (Echinochloa oryzicola [20]): inactive
- growth inhibition (GI) (Echinochloa oryzicola [21]): Active
- MED (Echinochloa oryzicola [22]): 1.25 g/acre
